In patent US12295929B2, “Intravenous baclofen formulations and treatment methods” (Allaysis, LLC, priority 2015, dated 2025):

Legend:
[1] = Randomized, open-label, 2-way crossover pharmacokinetics and bioavailability study of oral vs intravenous baclofen; format: in vivo, human; settings: for Cmax: healthy human volunteers; for Cmax / AUC: plasma; for Cmax / AUC0-∞/Dose / AUC: mean ± SD; for AUC: human
Method: Twelve healthy human volunteers were recruited. The volunteers were medication free for 48 hours before, during, and 24 hours after the administration of the study drug.
The 12 volunteers participated in a randomized, open-label, 2-way crossover study to compare the pharmacokinetics and bioavailability of oral baclofen with an intravenous baclofen formulation. The oral formulation was a 10 mg baclofen tablet. A single intravenous dose of 5 mg was administered over 15 minutes, using the commercially available 2 mg/mL intrathecal baclofen formulation (Lioresal Intrathecal). Blood samples (6 mL) for the measurement of plasma concentrations of baclofen were collected in blood collection tubes containing K2 ethylenediaminetetraacetic acid at the following times: prior to dosing; at 5, 15, and 30 minutes; and at 1, 2, 4, 6, 8, 10, 12, and 24 hours after drug administration.
Study plasma samples were prepared by adding 50 μL of a 500 μg/mL levetiracetam solution (internal standard) to 250 μL of K2 ethylenediaminetetraacetic acid (EDTA) human plasma. Baclofen and the internal standard were extracted from plasma by precipitating the protein with methanol and drying it under nitrogen at approximately 40° C. The dried residues were reconstituted in 300 μL of a mobile phase consisting of 20 mM ammonium acetate—methanol (75:25) solution. After 1 minute of vortex mixing, the reconstituted sample solution was filtered and injected onto the high-performance liquid chromatograph-mass spectrometer system. Standard curve samples over a range of 20 to 400 ng/mL baclofen and quality control samples containing 30 (low), 80 (medium), and 240 ng/mL (high) baclofen were prepared and analyzed in triplicate along with the study samples. The assay was linear over the range 20-400 ng/mL with a lower limit of quantification of 20 ng/mL.
Baclofen concentration—time data were analyzed using a noncompartmental pharmacokinetic approach with Phoenix software (version 6.2; Pharsight Corporation, Mountain View, CA). The terminal rate constant (λz) was determined from the slope of the terminal log-linear portion of the plasma concentration—time curve, and the terminal half-life (t1/2) was calculated as ln 2/(λz). Maximum plasma concentrations (Cmax) and time to maximum concentration (Tmax) were determined by direct observation of the data. The area under the concentration-time curve to the last nonzero plasma concentration (Clast) that was above half the lower limit of quantification (10 ng/mL) was calculated by the trapezoidal rule and reported as AUClast. The area under the concentration-time curve extrapolated to infinity (AUC0-∞) was calculated as AUClast+(Clast/λz). Mean and standard deviation values for the parameters were also obtained using the descriptive statistics tool in Phoenix version 6.2. A paired t-test was used to determine if statistical differences existed in log normalized, dose-adjusted area under the curve between oral and intravenous arms.

[2] = cited from earlier work

time point of observed maximum baclofen concentration ([1]; 5 mg IV over 15 minutes): 5 min
Cmax ([1]; 5 mg IV over 15 minutes): 313 ng/mL
AUC0-∞/Dose ([1]; 5 mg IV): 141 ± 33 ng·h/mL/mg
Cmax ([1]; 10 mg oral tablet): 176 ng/mL
Tmax ([1]; 10 mg oral tablet, median (min, max)): 1 h
AUC0-∞/Dose ([1]; 10 mg oral): 102 ± 23 ng·h/mL/mg
AUC ([1]; 5 mg IV): 593 ± 111 ng·h/mL
AUC ([1]; 10 mg oral): 878 ± 199 ng·h/mL
SMILES: NCC(CC(=O)O)c1ccc(Cl)cc1 (racemic) [Baclofen, 4-amino-3-(4-chlorophenyl) butanoic acid]
solubility in water [2]: slightly soluble
